Holding throughout (type): in vivo
For test [1], the system named is wild buckwheat (Polygonum convululus). As to the kind of experiment: General postemergence herbicidal activity, wild buckwheat. To be noted: post-emergence, 336 h, postemergence, after 14 d, 0 = no injury, 100 = complete kill, read-out: POLCO % Visual Injury; for pest or weed control at 70 g/ha: 70 g ai/ha; for pest or weed control at 140 g/ha: 140 g ai/ha. An outline of the steps: (§1)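 Greenhouse plants at first to second true leaf stage sprayed overhead at 187 L/ha in acetone/DMSO with crop oil concentrate and surfactant, at a high rate plus ½× to 1/16× serial dilutions. Injury rated visually after 14 d against solvent-blank controls, 0 (none) to 100% (complete kill).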

The subject of test [2] is lambsquarters (Chenopodium album). As to the kind of experiment: General postemergence herbicidal activity, lambsquarters. Particulars: post-emergence, 336 h, postemergence, after 14 d, 0 = no injury, 100 = complete kill, read-out: CHEAL % Visual Injury; for pest or weed control at 70 g/ha: 70 g ai/ha; for pest or weed control at 140 g/ha: 140 g ai/ha. An outline of the steps: as §1

For test [3], the system named is velvetleaf (Abutilon theophrasti). As to the kind of experiment: General postemergence herbicidal activity, velvetleaf. To be noted: post-emergence, 336 h, postemergence, after 14 d, 0 = no injury, 100 = complete kill, read-out: ABUTH % Visual Injury; for pest or weed control at 70 g/ha: 70 g ai/ha; for pest or weed control at 140 g/ha: 140 g ai/ha. The gist of the method:
as §1

Test [4] deals with lambsquarters (Chenopodium album). As to the kind of experiment: Postemergence herbicidal activity in sugar beet, lambsquarters. On the set-up: unit not given here. Particulars: sugar beet test, visual rating after 21 d, probit analysis, dose to kill or control 80 percent. The procedure: (§2) Seeds of sugar beet and the desired weed species were planted in Sun Gro MetroMix® 360 planting mixture, which typically has a pH of 6.0 to 6.8 and an organic matter content of about 30 percent, in plastic pots with a surface area of 95 cm^2. When required to ensure good germination and healthy plants, a fungicide treatment and/or other chemical or physical treatment was applied. The plants were grown for 15-28 d in a greenhouse with an approximate 15-h photoperiod which was maintained at about 23-29° C. during the day and 22-28° C. during the night. Nutrients and water were added on a regular basis and supplemental lighting was provided with overhead metal halide 1000-Watt lamps as necessary. The sugar beet plants were utilized for testing when they reached the third or fourth true leaf stage. The weed species were utilized at the fourth true leaf stage.
(§3) A weighed amount, determined by the highest rate to be tested, of each test compound was dissolved in 4 mL of a 97:3 v/v mixture of acetone and DMSO to obtain concentrated stock solutions. […] The concentrated stock solutions obtained were diluted with 20 mL of an aqueous mixture containing acetone, water and Agri-Dex crop oil concentrate, in a 16.7:82.1:1.25 v/v ratio to obtain spray solutions containing the highest application rates. Additional application rates were obtained by serial dilution of 12 mL of the high rate solution into a solution containing 2 mL of 97:3 v/v mixture of acetone and DMSO and 10 mL of an aqueous mixture containing acetone, water and Agri-Dex crop oil concentrate, in a 16.7:82.1:1.25 v/v ratio to obtain ½×, ¼×, ⅛× and 1/16× rates of the high rate. Compound requirements are based upon a 12 mL application volume at a rate of 187 L/ha. Formulated compounds were applied to the plant material with an overhead Mandel track sprayer equipped with 8002E nozzles calibrated to deliver 187 L/ha over an application area of 0.503 m^2 at a spray height of 18 inches (43 cm) above the average plant canopy height. Control plants were sprayed in the same manner with the solvent blank.
(§4) The treated plants and control plants were placed in a greenhouse as described above and watered by sub-irrigation to prevent wash-off of the test compounds. After 21 d, the condition of the test plants as compared with that of the untreated plants was determined visually and scored on a scale of 0 to 100 percent where 0 corresponds to no injury and 100 corresponds to complete kill.
(§5) By applying the well-accepted probit analysis as described by J. Berkson in Journal of the American Statistical Society 1953, 48, 565, and by D. Finney in “Probit Analysis” Cambridge University Press (1952), the above data can be used to calculate GR20 and GR80 values, which are defined as growth reduction factors that correspond to the effective dose of herbicide required to kill or control 20 percent or 80 percent, respectively, of a target plant.

The subject of another test is corn (Zea mays). As to the kind of experiment: General postemergence herbicidal activity, corn. Particulars: post-emergence, 336 h, postemergence, after 14 d, 0 = no injury, 100 = complete kill, read-out: ZEAMX % Visual Injury; for plant injury at 70 g/ha: 70 g ai/ha; for plant injury at 140 g/ha: 140 g ai/ha. The gist of the method:
as §1

For test [5], the system named is sugar beet (Beta vulgaris). As to the kind of experiment: Postemergence herbicidal activity in sugar beet, crop. On the set-up: unit not given here. Particulars: visual rating after 21 d, probit analysis, dose to kill or control 20 percent. The protocol: as §2, §3, §4, §5
Test [6] concerns lambsquarters (Chenopodium album). As to the kind of experiment: Postemergence herbicidal activity in oilseed rape (canola), lambsquarters. On the set-up: unit: g ai/ha. To be noted: oilseed rape (canola) test, visual rating after 21 d, probit analysis, dose to kill or control 80 percent. The procedure:
as §2, with “oilseed rape (canola)” for “sugar beet”
as §3, §4, §5

The subject of test [7] is winter oilseed rape (canola) (Brassica napus). As to the kind of experiment: Postemergence herbicidal activity in oilseed rape (canola), crop. More on the design: unit not given here. Particulars: visual rating after 21 d, probit analysis, dose to kill or control 20 percent. The procedure:
as §2, with “oilseed rape (canola)” for “sugar beet”
as §3, §4, §5

For test [8], the system named is purple deadnettle (Lamium purpureum). As to the kind of experiment: Postemergence herbicidal activity in oilseed rape (canola), purple deadnettle. More on the design: unit not given here. Particulars: oilseed rape (canola) test, visual rating after 21 d, probit analysis, dose to kill or control 80 percent. The protocol:
as §2, with “oilseed rape (canola)” for “sugar beet”
as §3, §4, §5

Test [9] has the same test system. As to the kind of experiment: Postemergence herbicidal activity in sugar beet, purple deadnettle. More on the design: unit not given here. Particulars: sugar beet test, visual rating after 21 d, probit analysis, dose to kill or control 80 percent. The protocol: as §2, §3
The treated plants and control plants were placed in a greenhouse as described above and watered by sub-irrigation to prevent wash-off of the test compounds. After 21 d, the condition of the test plants as compared with that of the untreated plants was determined visually and scored on a scale of 0 to 100 percent where 0 corresponds to no injury and 100 corresponds to complete kill. […]

Regarding `COc1c(Cl)ccc(-c2cc(N)c(Cl)c(C(=O)NOC/C=C/Cl)n2)c1F` [Compound 31, (E)-4-Amino-3-chloro-6-(4-chloro-2-fluoro-3-methoxyphenyl)-N-(3-chloro-2-propenyl-oxy)picolinamide], the pest or weed control at 70 g/ha in test [1], in [2] and in [3] was 100% in each case. In addition, in test [4], the “CHEAL GR80” value was below 8.75. In addition, the plant injury at 70 g/ha with corn (Zea mays) was 5%. Moreover, the “BEAVA GR20” value in test [5] is given as above 140.

Take `C=CCONC(=O)c1nc(-c2ccc(Cl)c(OC)c2F)c(F)c(N)c1Cl` [Compound 39, N-(2-Propenyloxy)-4-amino-3-chloro-6-(4-chloro-2-fluoro-3-methoxyphenyl)-5-fluoropicolinamide]: the pest or weed control at 17.5 g/ha in [1] (17.5 g ai/ha), in test [2] (17.5 g ai/ha) and in test [3] (17.5 g ai/ha) was 100% each time. Also, the “CHEAL GR80” value in test [6] is 49. Also, the “BRSNW GR20” value in test [7] is above 70. In addition, the “LAMPU GR80” value in test [8] is below 8.75. Moreover, the plant injury at 17.5 g/ha in the test with corn (Zea mays) (17.5 g ai/ha) was determined as 45%.

As to `COc1c(Cl)ccc(-c2cc(N)c(Cl)c(C(=O)NOCc3cnc(Cl)s3)n2)c1F` [Compound 41, 4-Amino-3-chloro-6-(4-chloro-2-fluoro-3-methoxyphenyl)-N-((2-chlorothiazol-5-yl)-methoxy)picolinamide], the pest or weed control at 70 g/ha in test [1], in test [2] and in [3] was 100% in each case. Also, in test [9], the “LAMPU GR80” value was below 4.38. For the same molecule, in test [4], the “CHEAL GR80” value is reported as 30. In addition, the plant injury at 70 g/ha in the test with corn (Zea mays) was 5%. For the same molecule, the “BEAVA GR20” value in [5] is on record as 136.

For the molecule `COc1c(Cl)ccc(-c2nc(C(=O)NOC3CCCCO3)c(Cl)c(N)c2F)c1F` (centres unmarked) [Compound 48, 4-Amino-3-chloro-6-(4-chloro-2-fluoro-3-methoxyphenyl)-5-fluoro-N-(tetrahydro-2H-pyran-2-yloxy)picolinamide], the pest or weed control at 140 g/ha in [1], in test [2] and in [3] was 100% throughout. The “CHEAL GR80” value in test [6] worked out at 18. Moreover, the “BRSNW GR20” value in [7] is listed as above 70. The “LAMPU GR80” value in test [8] is listed as below 4.38. In addition, in the test with corn (Zea mays), the plant injury at 140 g/ha was 0%.

Regarding `C/C=C/CONC(=O)c1nc(-c2ccc(Cl)c(OC)c2F)cc(N)c1Cl` [Compound 30, (E)-4-Amino-N-(2-butenyloxy)-3-chloro-6-(4-chloro-2-fluoro-3-methoxy-phenyl)picolinamide], the pest or weed control at 70 g/ha in [1], in [2] and in [3] was 100% in each case. Further, the “CHEAL GR80” value in test [6] and in [4] was below 8.75 throughout. The “LAMPU GR80” value in [9] and in test [8] was below 4.38 in each case. Moreover, the “BRSNW GR20” value in test [7] was above 70. Also, the plant injury at 70 g/ha with corn (Zea mays) was 50%. Besides, the “BEAVA GR20” value in test [5] is on record as above 140.

As for `C=CCON(C(C)=O)C(=O)c1nc(-c2ccc(Cl)c(OC)c2F)nc(N)c1C=C` [Compound 9, N-Acetyl-N-(2-propenyloxy)-6-amino-2-(4-chloro-2-fluoro-3-methoxyphenyl)-5-vinylpyrimidine-4-carboxamide], the values for the pest or weed control at 140 g/ha in test [1], in test [2] and in test [3] were 80%, 100% and 95%, respectively. Also, the plant injury at 140 g/ha with corn (Zea mays) is 25%.

With `COc1c(Cl)ccc(-c2cc(N)c(Cl)c(C(=O)NOC3C=CCCC3)n2)c1F` (centres unmarked) [Compound 18, 4-Amino-3-chloro-6-(4-chloro-2-fluoro-3-methoxyphenyl)-N-(cyclohex-2-enyl-oxy)picolinamide], the pest or weed control at 140 g/ha in test [1], in test [2] and in test [3] was 100% each time. In addition, in the test on corn (Zea mays), the plant injury at 140 g/ha amounted to 5%.

On to `CCONC(=O)c1nc(-c2ccc(Cl)c(OC)c2F)cc(N)c1Cl` [Compound 4, 4-Amino-3-chloro-6-(4-chloro-2-fluoro-3-methoxyphenyl)-N-ethoxypicolinamide], for which the pest or weed control at 140 g/ha in test [1], in test [2] and in [3] was 100% each time. Also, the “CHEAL GR80” value in test [6] is 11; in test [4], below 8.75. Besides, the “LAMPU GR80” value in test [9] and in [8] was below 4.38 throughout. The “BRSNW GR20” value in [7] is recorded as above 140. Further, the plant injury at 140 g/ha in the test on corn (Zea mays) worked out at 0%. Moreover, the “BEAVA GR20” value in test [5] is given as above 140.

With `C=C(Cl)CONC(=O)c1nc(-c2ccc(Cl)c(OC)c2F)cc(N)c1Cl` [Compound 29, 4-Amino-3-chloro-6-(4-chloro-2-fluoro-3-methoxyphenyl)-N-(2-chloro-2-propenyl-oxy)picolinamide], the pest or weed control at 35 g/ha in test [1] (35 g ai/ha), in test [2] (35 g ai/ha) and in test [3] (35 g ai/ha) was 100% each time. Besides, the plant injury at 35 g/ha in the test with corn (Zea mays) (35 g ai/ha) worked out at 50%.
